# Read-outs that look alike come from different tables or passages of the source.
# Tests used:
# Type in all cases: cell-based
# HeLa CD4 LTR β-gal cells = assay: Cytotoxicity for HeLa CD4 LTR β-gal cells
# Procedure: At assay termination the assay plates were stained with the soluble tetrazolium-based dye MTS (CellTiter® Reagent, Promega) to determined cell viability and quantify compound toxicity. […] At termination of the assay 20 μL of MTS reagent was added per well. The wells were incubated for 4 h at 37° C., 5% CO2. Adhesive plate scalers were used in place of the lids, the sealed plate was inverted several times to mix the soluble formazan product and the plate was read spectrophotometrically at 490 nm with a 650 nm reference wavelength on a Molecular Devices Vmax plate reader.
# This cell line represents one of 3 standard models for performing time of addition assays.
# HeLa CD4 LTR B-gal cells = assay: Attachment assay, toxicity on sister plates by MTS; details: for TC50: attachment assay
# Procedure: (§1) The attachment assay was performed with the HeLa CD4 LTR B-gal cells available from the AIDS Research and Reference Reagent Repository. […] HeLa CD4 LTR B-gal cells express cell surface CD4 and contain an LTR B-galactosidase reporter construct. Upon infection either the Tat protein incorporated into the virion or new Tat produced following virus integration and transcription trans-activate the LTR B-gal reporter, leading to expression of the B-galactosidase enzyme. HeLa CD4 LTR B-gal cells are routinely cultured with the required selection antibiotics and scrended for mycoplasma contamination. Twenty-four h prior to initiation of the assay cells were trypsinized, counted and 1×10^4 cells placed in a 0.2 cm well in media without selection antibiotics. Media was removed and compound media placed on the cells and incubated for 15 to 30 min at 37° C. A known titer of virus was then added to the wells and the incubation continued for 1 h. At the end of the incubation the wells were washed 6 times with media and the culture continued for 48 h. At 48 h the wells were washed one time with PBS and B-galactosidase enzyme expression determined by chemiluminescence per manufacturers instructions (Tropix Gal-screen TM, Tropix, Bedford, Mass.). Compound toxicity was monitored on sister plates using MTS dye reduction.
# [1] = tested on: HIV-1 attachment to HeLa CD4 LTR B-gal cells; assay: Inhibition of attachment assay; details: for IC50: attachment assay
# Procedure: as §1, with “reduction. (See Tables 14 through 16 and FIGS. 21 and 22).” for “reduction.”
# HIV = assay: PBMC time of addition assay; details: addition after 32 h of infection
# From the text: FIGS. 18 and 19 show the results of the time of addition assay with the K and Z compound. In time of addition assays the timed addition of compounds after initial infection allows the identification of specific stages of virus replication. This is seen with the positive control compound AZT. AZT is a reverse transcriptase inhibitor. […] Thus it has an antiviral target that is occurring after completion of reverse transcription. […] In general since this time of addition uses multiple rounds of infection in the PBMCs versus a single round in cell lines systems, lower concentrations of compound will often shift the curve to the left. This is seen in FIG. 18.
# [2] = tested on: HIV RoJo (a clinical isolate); assay: Chronically infected PBMCs, supernatant reverse transcriptase activity; details: 7 day treatment
# Procedure: Reverse transcriptase activity was measured in cell-free supernatants. Tritiated thymidine triphosphate (NEN) (TTP) was resuspended in distilled H2O at 5 Ci/mL. Poly rA and oligo dT were prepared as a stock solution which was kept at −20° C. The RT reaction buffer was prepared fresh on a daily basis and consists of 125 μL 1.0 M EGTA, 125 μL dH2O, 110 μL 10% SDS, 50 μL 1.0 M Tris (pH 7.4), 50 μL, 1.0 M DTT, and 40 μL 1.0 M MgCl2. These three solutions were mixed together in a ratio of 2 parts TTP, 1 part poly rA:oligo dT, and 1 part reaction buffer. Ten microliters of this reaction mixture was placed in a round bottom microtiter plate and 15 μL of virus containing supernatant was added and mixed. The plate was incubated at 37° C. in a water bath with a solid support to prevent submersion of the plate and incubated for 60 minutes. Following reaction, the reaction volume was spotted onto pieces of DE81 paper, washed 5 times for 5 minutes each in a 5% sodium phosphate buffer, 2 times for 1 minute each in distilled water, 2 times for 1 minute each in 70% ethanol, and then dried. Opti-Fluor O was added to each sample and incorporated radioactivity was quantitated utilizing a Wallac 1450 Microbetaplus liquid scintillation counter.
# In these studies PBMCs are infected with HIV RoJo (a clinical isolate) and a dynamic population of infected PBMCs established over a period of 2 to 3 weeks. This population of infected PBMCs was established and maintained by the addition of fresh PBMCs in a 1:1 ratio every 7 days, thus overcoming the lost of PBMCs to normal cell death processes. Thus a population of cells was established that consisted of uninfected cells, short lived infected cells and long lived infected cells. In experiments where AZT was added to prevent re-infection of the population, we typically saw a 50% reduction in infection following a 7 day treatment. This means that 50% of the virus production from the infected […] population was due re-infection. […] Thus there was a population of infected PBMCs present ([…] of the total) which survived for extended periods of time and thus met the definition of being chronically infected.
smiles,measurement,setting,value
C[S+](C)[O-] [DMSO],% CC,HeLa CD4 LTR β-gal cells; dilution 1:50,111.0%
same,TOXICITY VALUES (Cell Titer) MEAN,HeLa CD4 LTR β-gal cells; dilution 1:50,1.167 O. D.
same,% CC,HeLa CD4 LTR β-gal cells; dilution 1:1600,103.2%
same,TOXICITY VALUES (Cell Titer) MEAN,HeLa CD4 LTR β-gal cells; dilution 1:1600,1.085 O. D.
same,% CC,HeLa CD4 LTR β-gal cells; dilution 1:5000,105.9%
same,TOXICITY VALUES (Cell Titer) MEAN,HeLa CD4 LTR β-gal cells; dilution 1:5000,1.113 O. D.
same,% CC,HeLa CD4 LTR β-gal cells; dilution 1:16000,99.1%
same,TOXICITY VALUES (Cell Titer) MEAN,HeLa CD4 LTR β-gal cells; dilution 1:16000,1.042 O. D.
same,% CC,HeLa CD4 LTR β-gal cells; dilution 1.500,101.0%
same,TOXICITY VALUES (Cell Titer) MEAN,HeLa CD4 LTR β-gal cells; dilution 1.500,1.062 O. D.
same,% CC,HeLa CD4 LTR β-gal cells; dilution 11110,111.0%
same,TOXICITY VALUES (Cell Titer) MEAN,HeLa CD4 LTR β-gal cells; dilution 11110,1.167 O. D.
COc1cc(-c2ccc(/N=N/c3ccc4c(S(=O)(=O)O)cc(S(=O)(=O)O)c(N)c4c3O)c(OC)c2)ccc1/N=N/c1ccc2c(S(=O)(=O)O)cc(S(=O)(=O)O)c(N)c2c1O [Chicago Sky Blue],% CC,HeLa CD4 LTR B-gal cells; CONC 0.032,93.3%
same,TOXICITY VALUES (Cell Titer) MEAN,HeLa CD4 LTR B-gal cells; CONC 0.032,1.259 O. D.
same,% CC,HeLa CD4 LTR B-gal cells; CONC 0.1,80.8%
same,TOXICITY VALUES (Cell Titer) MEAN,HeLa CD4 LTR B-gal cells; CONC 0.1,1.090 O. D.
same,% CC,HeLa CD4 LTR B-gal cells; CONC 0.32,84.7%
same,TOXICITY VALUES (Cell Titer) MEAN,HeLa CD4 LTR B-gal cells; CONC 0.32,1.142 O. D.
same,% CC,HeLa CD4 LTR B-gal cells; CONC 1,82.6%
same,TOXICITY VALUES (Cell Titer) MEAN,HeLa CD4 LTR B-gal cells; CONC 1,1.115 O. D.
same,% CC,HeLa CD4 LTR B-gal cells; CONC 3.2,83.3%
same,TOXICITY VALUES (Cell Titer) MEAN,HeLa CD4 LTR B-gal cells; CONC 3.2,1.123 O. D.
same,% CC,HeLa CD4 LTR B-gal cells; CONC 10,73.3%
same,TOXICITY VALUES (Cell Titer) MEAN,HeLa CD4 LTR B-gal cells; CONC 10,0.989 O. D.
same,TC50,HeLa CD4 LTR B-gal cells,>10 µg/mL
same,TC50,HeLa CD4 LTR B-gal cells; listed as CHICAGO SKY BLUE,TC50 (μG/mL) = >.10 μg/mL
same,% VC,[1]; CONC 0.032,90.6%
same,RLU (Relative Light Units) MEAN,[1]; CONC 0.032,127754.7 RLU
same,% VC,[1]; CONC 0.1,74.5%
same,RLU (Relative Light Units) MEAN,[1]; CONC 0.1,105105.3 RLU
same,% VC,[1]; CONC 0.32,48.2%
same,RLU (Relative Light Units) MEAN,[1]; CONC 0.32,67955.7 RLU
same,% VC,[1]; CONC 1,10.9%
same,RLU (Relative Light Units) MEAN,[1]; CONC 1,15363.3 RLU
same,% VC,[1]; CONC 3.2,8.3%
same,RLU (Relative Light Units) MEAN,[1]; CONC 3.2,11753.3 RLU
same,% VC,[1]; CONC 10,8.0%
same,RLU (Relative Light Units) MEAN,[1]; CONC 10,11266.7 RLU
same,IC50,"[1]; Human immunodeficiency virus 1, HeLa, read-out: IC50",0.3 µg/mL
same,IC50,[1]; listed as CHICAGO SKY BLUE,IC50 (μG/mL) = 0.30 μg/mL
"Cc1cn([C@H]2C[C@H](N=[N+]=[N-])[C@@H](CO)O2)c(=O)[nH]c1=O [AZT, reference compound]",effect on virus replication,HIV,no significant effect
same,reduction in infection,[2],50%

# Source: patent publication US20030181436A1, “Treatment for AIDS, HIV, and other related diseases and compounds for use therewith” (priority 2001, published 2003)
